Laboratory results reported in patent publication US20250169496A1, “USE OF 2-AMINO-3-HYDROXY-3-METHYLBUTYRIC ACID AND/OR 2-AMINO-3-(4-HYDROXYPHENYL) BUTYRIC ACID” (NANJING TIANNONG BIOTECHNOLOGY CO., LTD., priority 2021, published 2025).

Assays:
[1] = system: tomato spotted wilt virus (TSWV); test: Induced resistance of tobacco to infection of tomato spotted wilt virus; type: in vivo, Nicotiana benthamiana; conditions: for Viral protein content: tobacco leaves 3 d after inoculation, Western blot grayscale, relative
Procedure: Obtain the tomato spotted wilt virus from Yunnan Province, China, store the initial virus source in a −80° C. refrigerator, activate the virus by inoculating it by friction inoculation on Nicotiana benthamiana leaves, extract viral plasmids, transform them by Escherichia coli competent cells, spread them onto a resistant plate for culture, pick a single colony for PCR screening, select positive colonies for sequencing and subsequent plasmid extraction, add the plasmids with normal sequencing to agrobacterium competent cells, transform the agrobacterium by the electric shock method, spread the transformed agrobacterium solution on the corresponding resistance screening plate, and culture it at 28° C.(±1) for 48 h. Pick a single agrobacterium colony on the transformation plate, place it in 5 mL of LB medium with the corresponding resistance and culture it at 28° C. and 180 rpm overnight. Centrifuge at 6,000 rpm for 2 min, collect the bacteria, suspend the bacteria with a treatment buffer (10 mM MgCl2, 10 mM MES, 10 μM Acetosyringone) until the OD600 of the suspension is 0.5, treat it at 28° C. in a dark place for 3 h and keep it for future use.
Take 2-amino-3-hydroxy-3-methylbutyric acid, dissolve it with distilled water, then dilute the solution with distilled water by gradient into 0 nM, 0.1 nM, 1 nM and 10 nM solutions. Sow Nicotiana benthamiana seeds in a small pot, and culture them at 24(±1)° C., 12 h/12 h illumination for 5 weeks. Select healthy tobacco plants (plants with 8-10 leaves are appropriate), spray 2-amino-3-hydroxy-3-methylbutyric acid solutions at the above concentrations on leaves and stems twice at an interval of 24 h. After 24 hours, suck an agrobacterium solution at a uniform concentration with a 1 mL syringe, press the injection port of the syringe directly on a small hole on the back of a tobacco leaf, and slowly push the bacterial solution into the hole so that the whole leaf is soaked. Culture the soaked tobacco at 24(±1)° C. 12 h/12 h illumination. Observe under a microscope after 3 d and make record; meanwhile, take a sample, analyze the grayscale of protein bands by using Western blot and Image J software, and determine the relative protein content of virus in leaves. Observe the morbidity of the tobacco leaves after 15 days, record the disease index with reference to GB/T 23222-2008 Grade and Investigation Method of Tobacco Diseases and Insect Pests. The formula is as follows: […]
Grading standard of tomato spotted wilt viruses (grading survey with plant as a unit): • Level 0: No disease in the whole plant; • Level 1: The shoot and leaf veins are clear or the leaves are slightly mottled, and the diseased plant is not dwarfed obviously; • Level 3: One third of the leaves are mottled, but the leaves are not deformed, or the plant is dwarfed to more than three quarters of the normal plant height; • Level 5: One third to a half of the leaves are mottled, or a minority of leaves are deformed, or the main veins turn black, or the plant is dwarfed to two thirds to three quarters of the normal plant height; • Level 7: A half to two thirds of the leaves are mottled, or deformed or a minority of major lateral veins are dead, or the plant is dwarfed to a half to two thirds of the normal plant height; • Level 9: The leaves of the whole plant are mottled, or seriously deformed or dead, or the diseased plant is dwarfed to […] of the normal plant height.

wheat powdery mildew = test: Induced resistance of wheat seedlings to powdery mildew (greenhouse pots); type: in vivo, wheat (NAU0686); conditions: for Relative immune effect: wheat powdery mildew; for Number of mycelia and conidium yield on wheat leaves: 10-10,000 nM, with the increase of concentration
Procedure: Take 2-amino-3-hydroxy-3-methylbutyric acid, dissolve it in distilled water, then dilute the solution with distilled water by gradient into 10 nM, 100 nM, 1,000 nM and 10,000 nM solutions, and set a blank control. Accelerate germination of wheat (NAU0686) seeds, then sow them in sterilized soil bowls, and culture them in a greenhouse of 23 (±1)° C. and 12 h illumination. Spray the 2-amino-3-hydroxy-3-methylbutyric acid solutions at the above concentrations to the stems and leaves of wheat seedlings when the seedlings have grown to have one leaf and one shoot, at an interval of 24 h and twice in total, evenly sprinkle fresh powdery wheat spores on the wheat leaves after 24 h, 3 pots each treatment, 20 plants per pot. Investigate the morbidity level of the wheat in each treatment after 10 d, record the morbidity level according to the wheat powdery mildew grading standard in the Pesticide—Guidelines for the Field Efficacy Trials(I) and calculate the disease index and relative immune effect by the calculation method same as that for the disease index and relative immune effect of tomato spotted wilt. Wheatpowdery mildew grading standard (with leaf as a unit): • Level 1: The area of the disease spots accounts for less than 5% of the whole leaf area; • Level 3: The area of the disease spots accounts for6%-15% of the whole leaf area; • Level 5: The area of the disease spots accounts for 16%-25% of the whole leaf area; • Level 7: The area of the disease spots accounts for26%-50% of the whole leaf area; • Level 9: The area of the disease spots accounts for more than 50% of the whole leaf area.

[2] = system: wheat under drought stress; test: Hydroponic wheat under drought stress (25% PEG-6000); type: in vivo; conditions: for Drought damage index / Dry weight, overground part / Dry weight, underground part / Fresh weight, overground part / Fresh weight, underground part / Root length: wheat, 6 d 25% PEG-6000, recovered 7 d; for Decrease of drought damage index / Increase of fresh weight of the overground part / Increase of fresh weight of the underground part / Increase of root length of wheat seedlings: compared to the control, drought stress
Procedure: Use a 6-mesh screen as a container for hydroponic culture of wheat, 50 grains per screen, replace the ½ Hoagland nutrient solution once every two days, spray 2-amino-3-hydroxy-3-methylbutyric acid solutions at2-amino-3-hydroxy-3-methylbutyric acid concentrations of 0, 100 and 1,000 nM when the wheat grows to the stage of two leaves and one shoot, and meanwhile, add 0.02% Tween 20 as a surfactant; after two days of continuous spray, replace the hydroponic nutrient solution with a ½ Hoagland nutrient solution containing 25% PEG-6000 for stress treatment,rewater after 6 d of drought stress, recover growth in a normal nutrient solution for 7 d, then observe and determine the drought damage index, and determine the root length and biomass.
The manifestation features after drought damage of leaves are similar to those after salt damage. By taking reference to the salt damage evaluation indexes, drought damage rate and drought damage index are introduced.

[3] = 0.1 nM sprayed twice, tobacco 15 days after TSWV inoculation
[4] = 1 nM sprayed twice, tobacco 15 days after TSWV inoculation
[5] = concentration range 0.1-10 nM, tobacco, TSWV

SMILES	Disease index [1, 3]	Viral protein content ([1]; 0.1 nM)	Relative immune effect ([1]; 0.1 nM, tobacco, TSWV)	Disease index [1, 4]	Viral protein content ([1]; 1 nM)	Relative immune effect ([1]; 1 nM, tobacco, TSWV)	Relative immune effect ([1]; 10 nM, tobacco, TSWV)	Disease index [1, 5]	Relative immune effect [1, 5]	Relative immune effect (wheat powdery mildew; 10 nM)	Relative immune effect (wheat powdery mildew; 100 nM)	Relative immune effect (wheat powdery mildew; 10,000 nM)	Number of mycelia and conidium yield on wheat leaves (wheat powdery mildew)	Drought damage index ([2]; 100 nM)	Dry weight, overground part ([2]; 100 nM)	Dry weight, underground part ([2]; 100 nM)	Fresh weight, overground part ([2]; 100 nM)	Fresh weight, underground part ([2]; 100 nM)	Root length ([2]; 100 nM)	Decrease of drought damage index ([2]; 1,000 nM)	further results
CC(c1ccc(O)cc1)C(N)C(=O)O (stereo not drawn) [2-amino-3-(4-hydroxyphenyl) butyric acid]	36.62 ± 0.87 b	0.34 ± 0.004 b	52.54%	29.83 ± 2.31 c	0.28 ± 0.012 c	61.34%	67.24%	lower than 50	more than 50%	20.17%	34.92%	71.12%	decreased significantly	47%	0.83 ± 0.01a g	0.36 ± 0.01a g	7.34 ± 0.18b g	3.70 ± 0.03b g	14.02 ± 0.03a cm	49%	Increase of fresh weight of the overground part ([2]; 1,000 nM): 45.66%; Increase of fresh weight of the underground part ([2]; 1,000 nM): 57.93%; Increase of root length of wheat seedlings ([2]; 1,000 nM): 11.47%; Drought damage index ([2]; 1,000 nM): 25%; Dry weight, overground part ([2]; 1,000 nM): 0.93 ± 0.05a g; Dry weight, underground part ([2]; 1,000 nM): 0.39 ± 0.01a g; Fresh weight, overground part ([2]; 1,000 nM): 8.90 ± 0.15a g; Fresh weight, underground part ([2]; 1,000 nM): 4.58 ± 0.01a g; Root length ([2]; 1,000 nM): 14.67 ± 007a cm
CC(C)(O)C(N)C(=O)O (stereo not drawn) [2-amino-3-hydroxy-3-methylbutyric acid]	58.64 ± 2.31 b	0.41 ± 0.029 b	34.48%	40.74 ± 3.02 c	0.30 ± 0.012 c	54.48%	67.59%	lower than 60	more than 30%	16.85%	27.90%	65.68%	decreased significantly	45%	0.80 ± 0.01b g	0.33 ± 0.01a g	7.27 ± 0.02b g	3.65 ± 0.01b g	13.94 ± 0.03a cm	51%	Relative immune effect (wheat powdery mildew; 1,000 nM): 47.24%; Disease index (wheat powdery mildew; concentration greater than or equal to 1,000 nM, susceptible wheat, powdery mildew): lower than 50; Increase of fresh weight of the overground part ([2]; 1,000 nM): 44.92%; Increase of fresh weight of the underground part ([2]; 1,000 nM): 55.02%; Increase of root length of wheat seedlings ([2]; 1,000 nM): 11.30%; Drought damage index ([2]; 1,000 nM): 26%; Dry weight, overground part ([2]; 1,000 nM): 0.92 ± 0.05a g; Dry weight, underground part ([2]; 1,000 nM): 0.37 ± 0.01a g; Fresh weight, overground part ([2]; 1,000 nM): 8.84 ± 0.09a g; Fresh weight, underground part ([2]; 1,000 nM): 4.48 ± 0.02a g; Root length ([2]; 1,000 nM): 14.58 ± 0.01a cm
